In patent US11242337B2, “Compounds useful for treating gastrointestinal tract disorders” (Ardelyx, Inc., priority 2017, dated 2022):

Tests used:
NHE3 [1] = molecular target: T1, NHE3 (Homo sapiens, UniProt P48764); test: Cell-based assay of NHE-3 activity (persistent inhibition), human; conditions: human Persistence, 60 min incubation then washout
T1 construct: expressed in transfected cells
T1 sequence (P48764 26-834): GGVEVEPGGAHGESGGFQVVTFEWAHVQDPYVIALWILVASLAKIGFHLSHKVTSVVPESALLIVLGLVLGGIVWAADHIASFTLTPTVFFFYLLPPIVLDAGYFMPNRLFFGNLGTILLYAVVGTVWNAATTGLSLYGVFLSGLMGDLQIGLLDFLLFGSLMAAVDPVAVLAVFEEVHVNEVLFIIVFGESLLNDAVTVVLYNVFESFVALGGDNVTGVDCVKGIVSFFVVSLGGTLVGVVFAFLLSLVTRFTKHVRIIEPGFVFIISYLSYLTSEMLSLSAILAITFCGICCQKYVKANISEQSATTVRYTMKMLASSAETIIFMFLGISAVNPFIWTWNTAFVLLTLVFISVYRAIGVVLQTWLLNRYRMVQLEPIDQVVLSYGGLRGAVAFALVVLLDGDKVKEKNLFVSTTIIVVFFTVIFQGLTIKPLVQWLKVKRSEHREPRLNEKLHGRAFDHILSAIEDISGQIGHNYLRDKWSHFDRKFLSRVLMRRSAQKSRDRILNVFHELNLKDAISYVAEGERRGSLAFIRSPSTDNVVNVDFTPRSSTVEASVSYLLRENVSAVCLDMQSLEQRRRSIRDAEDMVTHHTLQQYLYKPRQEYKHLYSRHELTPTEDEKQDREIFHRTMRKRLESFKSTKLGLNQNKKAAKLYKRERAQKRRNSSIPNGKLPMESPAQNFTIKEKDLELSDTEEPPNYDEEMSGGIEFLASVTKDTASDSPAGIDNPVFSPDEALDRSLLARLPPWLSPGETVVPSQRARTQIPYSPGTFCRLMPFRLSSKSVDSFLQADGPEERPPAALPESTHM
T1 sequence (Q99653 2-195 partner limits assumed): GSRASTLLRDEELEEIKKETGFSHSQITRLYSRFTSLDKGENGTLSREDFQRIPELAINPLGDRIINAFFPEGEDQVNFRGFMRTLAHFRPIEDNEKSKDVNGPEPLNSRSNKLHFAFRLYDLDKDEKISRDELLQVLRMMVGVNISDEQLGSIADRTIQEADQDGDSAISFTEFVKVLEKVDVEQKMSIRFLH
Outline: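 PS120 fibroblasts expressing human NHE3 with NHERF2 exposed to 0-30 μM compound for 60 min at RT, then washed out; cells acid-loaded by NH4Cl prepulse with BCECF-AM and Na+-free buffer. Na+-driven pH recovery started 10 min post-washout; initial rate of BCECF ratio change (FLIPR) taken as activity.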

NHE3 [2] = molecular target: T1, NHE3; test: Cell-based assay of NHE-3 activity (pre-incubation inhibition), human; conditions: human Preincubation
Outline: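 PS120 fibroblasts stably expressing human NHE3 and NHERF2, loaded 30 min at 37 °C with 5 μM BCECF-AM in NH4Cl buffer, then acidified 10 min at room temperature in Na+-free buffer with 0–30 μM compound. Initial rate of BCECF fluorescence ratio change (FLIPR) per minute taken as Na+/H+ activity.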

% inhibition (NHE3 [1]) | pIC50 (NHE3 [1]) | % inhibition (NHE3 [2]) | pIC50 (NHE3 [2]; 0-30 μM test compound) | IC50 (NHE3 [1]) | IC50 (NHE3 [2]; 0-30 μM test compound) | Compound
C (>70%) | C (NHE3 pIC50 > 7) | C (>70%) | C (NHE3 pIC50 > 7) |  |  | N#Cc1cc(Cl)cc2c1C[C@H](N1CCNCC1)[C@H]2Oc1ccc(S(=O)(=O)N[C@@H]2CCN(CCOCCNC(=O)NCCCCNC(=O)NCCOCCN3CC[C@@H](NS(=O)(=O)c4ccc(O[C@H]5c6cc(Cl)cc(C#N)c6C[C@@H]5N5CCNCC5)c(F)c4)C3)C2)cc1F [Example 109, 4-([(1S,2S)-6-Chloro-4-cyano-2-(piperazin-1-yl)-2,3-dihydro-1H-inden-1-yl]oxy)-N—[(R)-1-(20-[(R)-3-[(4-([(1S,2S)-6-chloro-4-cyano-2-(piperazin-1-yl)-2,3-dihydro-1H-inden-1-yl]oxy)-3-fluorophenyl)sulfonamide)pyrrolidin-1-yl]-7,14-dioxo-3,18-dioxa-6,8,13,15-tetraazaicosyl)pyrrolidin-3-yl]-3-fluorobenzenesulfonamide; tetra(trifluoroacetate)]
C (>70%) | C (NHE3 pIC50 > 7) | C (>70%) | C (NHE3 pIC50 > 7) |  |  | N#Cc1cc(Cl)cc2c1C[C@H](N1CCNCC1)[C@H]2Oc1ccc(S(=O)(=O)N[C@H]2CCN(CCOCCNC(=O)NCCCCNC(=O)NCCOCCN3CC[C@H](NS(=O)(=O)c4ccc(O[C@H]5c6cc(Cl)cc(C#N)c6C[C@@H]5N5CCNCC5)c(F)c4)C3)C2)cc1F [Example 110, 4-([(1S,2S)-6-Chloro-4-cyano-2-(piperazin-1-yl)-2,3-dihydro-1H-inden-1-yl]oxy)-N—[(S)-1-(20-[(S)-3-[(4-([(1S,2S)-6-chloro-4-cyano-2-(piperazin-1-yl)-2,3-dihydro-1H-inden-1-yl]oxy)-3-fluorophenyl)sulfonamide)pyrrolidin-1-yl]-7,14-dioxo-3,18-dioxa-6,8,13,15-tetraazaicosyl)pyrrolidin-3-yl]-3-fluorobenzenesulfonamide; tetra(trifluoroacetate)]
C (>70%) | C (NHE3 pIC50 > 7) | C (>70%) | C (NHE3 pIC50 > 7) |  |  | N#Cc1cc(Cl)cc2c1C[C@H](N1CCNCC1)[C@H]2Oc1ccc(S(=O)(=O)NC2CCN(C(=O)CCCNC(=O)NCCCCNC(=O)NCCCC(=O)N3CCC(NS(=O)(=O)c4ccc(O[C@H]5c6cc(Cl)cc(C#N)c6C[C@@H]5N5CCNCC5)cc4)CC3)CC2)cc1 [Example 115]
C (>70%) | C (NHE3 pIC50 > 7) | C (>70%) | C (NHE3 pIC50 > 7) |  |  | N#Cc1cc(Cl)cc2c1C[C@H](N1CCNCC1)[C@H]2Oc1ccc(S(=O)(=O)N2CCC(NC(=O)CCCNC(=O)NCCCCNC(=O)NCCCC(=O)NC3CCN(S(=O)(=O)c4ccc(O[C@H]5c6cc(Cl)cc(C#N)c6C[C@@H]5N5CCNCC5)cc4)CC3)CC2)cc1 [Example 120, N^1,N^18-Bis(1-([4-([(1S,2S)-6-chloro-4-cyano-2-(piperazin-1-yl)-2,3-dihydro-1H-inden-1-yl]oxy)phenyl]sulfonyl)piperidin-4-yl)-6,13-dioxo-5,7,12,14-tetraazaoctadecanediamide]
C (>70%) | C (NHE3 pIC50 > 7) | C (>70%) | C (NHE3 pIC50 > 7) |  |  | CN(C)[C@H]1CCCN([C@H]2Cc3c(C#N)cc(Cl)cc3[C@@H]2Oc2ccc(S(=O)(=O)NCCOCCOCCNC(=O)NCCCCNC(=O)NCCOCCOCCNS(=O)(=O)c3ccc(O[C@H]4c5cc(Cl)cc(C#N)c5C[C@@H]4N4CCC[C@H](N(C)C)C4)cc3)cc2)C1 [Example 122, 4-([(1S,2S)-6-Chloro-4-cyano-2-[(S)-3-(dimethylamino)piperidin-1-yl]-2,3-dihydro-1H-inden-1-yl]oxy)-N-[26-([4-([(1S,2S)-6-chloro-4-cyano-2-[(S)-3-(dimethylamino)piperidin-1-yl]-2,3-dihydro-1H-inden-1-yl]oxy)phenyl]sulfonamido)-10,17-dioxo-3,6,21,24-tetraoxa-9,11,16,18-tetraazahexacosyl]benzenesulfonamide]
C (>70%) | C (NHE3 pIC50 > 7) | C (>70%) | C (NHE3 pIC50 > 7) |  |  | N#Cc1cc(Cl)cc2c1C[C@H](N1CCNCC1)[C@H]2Oc1ccc(S(=O)(=O)NC2CCN(CCOCCNC(=O)NCCCCNC(=O)NCCOCCN3CCC(NS(=O)(=O)c4ccc(O[C@H]5c6cc(Cl)cc(C#N)c6C[C@@H]5N5CCNCC5)cc4)CC3)CC2)cc1 [Example 123, 4-([(1S,2S)-6-Chloro-4-cyano-2-(piperazin-1-yl)-2,3-dihydro-1H-inden-1-yl]oxy)-N-[1-(20-[4-([4-([(1S,2S)-6-chloro-4-cyano-2-(piperazin-1-yl)-2,3-dihydro-1H-inden-1-yl]oxy)phenyl]sulfonamide]piperidin-1-yl)-7,14-dioxo-3,18-dioxa-6,8,13,15-tetraazaicosyl]piperidin-4-yl)benzenesulfonamide]
B (40-70%) |  | C (>70%) |  | < 100 nM | < 100 nM | N#Cc1cc(Cl)cc2c1C[C@H](N1CCCNCC1)[C@H]2Oc1ccc(S(=O)(=O)N[C@H]2CCN(CCOCCNC(=O)NCCCCNC(=O)NCCOCCN3CC[C@H](NS(=O)(=O)c4ccc(O[C@H]5c6cc(Cl)cc(C#N)c6C[C@@H]5N5CCCNCC5)cc4)C3)C2)cc1 [Example 126, 4-([(1S,2S)-6-Chloro-4-cyano-2-(1,4-diazepan-1-yl)-2,3-dihydro-1H-inden-1-yl]oxy)-N—[(S)-1-(20-[(S)-3-([4-([(1S,2S)-6-chloro-4-cyano-2-(1,4-diazepan-1-yl)-2,3-dihydro-1H-inden-1-yl]oxy)phenyl]sulfonamido)pyrrolidin-1-yl]-7,14-dioxo-3,18-dioxa-6,8,13,15-tetraazaicosyl)pyrrolidin-3-yl]benzenesulfonamide]
C (>70%) | C (NHE3 pIC50 > 7) | C (>70%) | C (NHE3 pIC50 > 7) |  |  | C[C@@H]1CN([C@H]2Cc3c(C#N)cc(Cl)cc3[C@@H]2Oc2ccc(S(=O)(=O)N[C@H]3CCN(CCOCCNC(=O)NCCCCNC(=O)NCCOCCN4CC[C@H](NS(=O)(=O)c5ccc(O[C@H]6c7cc(Cl)cc(C#N)c7C[C@@H]6N6CCN[C@H](C)C6)cc5)C4)C3)cc2)CCN1 [Example 132, 4-([(1S,2S)-6-Chloro-4-cyano-2-[(R)-3-methylpiperazin-1-yl]-2,3-dihydro-1H-inden-1-yl]oxy)-N—[(S)-1-(20-[(S)-3-([4-([(1S,2S)-6-chloro-4-cyano-2-[(R)-3-methylpiperazin-1-yl]-2,3-dihydro-1H-inden-1-yl]oxy)phenyl]sulfonamido)pyrrolidin-1-yl]-7,14-diaxo-3,18-dioxa-5,8,13,15-tetraazaicosyl)pyrrolidin-3-yl]benzenesulfonamide; bis(trifluoroacetic acid)]
C (>70%) | C (NHE3 pIC50 > 7) | C (>70%) | C (NHE3 pIC50 > 7) |  |  | C[C@@H]1CN([C@H]2Cc3c(C#N)cc(Cl)cc3[C@@H]2Oc2ccc(S(=O)(=O)N[C@@H]3CCN(CCOCCNC(=O)NCCCCNC(=O)NCCOCCN4CC[C@@H](NS(=O)(=O)c5ccc(O[C@H]6c7cc(Cl)cc(C#N)c7C[C@@H]6N6CCN[C@H](C)C6)cc5)C4)C3)cc2)CCN1 [Example 133, 4-([(1S,2S)-6-Chloro-4-cyano-2-[(R)-3-methylpiperazin-1-yl]-2,3-dihydro-1H-inden-1-yl]oxy)-N—[(R)-1-(20-[(R)-3-([4-([(1S,2S)-6-chloro-4-cyano-2-[(R)-3-methylpiperazin-1-yl]-2,3-dihydro-1H-inden-1-yl]oxy)phenyl]sulfonamido)pyrrolidin-1-yl]-7,14-dioxo-3,18-dioxa-6,8,13,15-tetraazaicosyl)pyrrolidin-3-yl]benzenesulfonamide; bis(trifluoroacetic acid)]
